The text below walks through data of patent publication US4701448A, “Metal salt of organic phosphate and an antihyperlipemic agent containing the same” (Asahi Denka Kogyo Kabushiki Kaisha, priority 1985, dated 1987).

Structures can show the parent of a compound that is named as a salt.

One data set has as its system serum cholesterol. As to the kind of experiment: Serum cholesterol lowering activity, oral, rabbit, 5 successive days. The format is in vivo. The settings on record: two times a day, 5 days. As for the experimental part:
(1) Serum cholesterol lowering activity the metal salt of organic phosphate according to the present invention was orally administered to a rabbit (body weight of about 3 Kg) two times a day (at 9:00 a.m. and 4:00 p.m.) for 5 successive days. After 5 days, blood was sampled and the total cholesterol value in serum was measured in a conventional manner.

Data set [1] is described as follows: Stability, 5 weeks at 45° C. and humidity of 80% (HPLC remaining rate). The settings on record: after 5 weeks, humidity of 80%; for remaining at 840 h: solid, 80% humidity; for Remaining rate: 50400 min. The format is physicochemical. As for the experimental part: One gram each of CB3A, CK3A and various metal salts thereof was placed in a beaker and the beaker was allowed to stand for 5 weeks in a constant temperature and humidity bath controlled at a temperature of 45° C. and a humidity of 80%. After 5 weeks, a remaining rate of the compound was analyzed quantitatively with a high performance liquid chromatography "Tri rotar" manufactured by Nippon Bunko K. K. (Japan).
A0 = initial amount of the compound prior to standing in the constan
temperature and humidity bath
A1 = final amount of the compound after 5 weeks

Data set [2] can be described thus: Water solubility, hygroscopic property and stability (statements in words). The format is physicochemical.
The next data set concerns mouse. Kind of data set: Acute toxicity, mouse. The format is in vivo. An excerpt: (§1) The acute toxicity of the metal salt of CB3A and of CK3A was examined by orally or peritoneally administrating an aqueous solution or dispersion thereof the results are shown in Table 2.
(§2) a . . . per os (oral administration)
(§3) b . . . intraperitoneal injection

For the next data set, the system named is rat. As to the kind of experiment: Acute toxicity, rat. The format is in vivo.
Source text: as §1, §2, §3

The next data set is described as follows: Acute toxicity, mouse. The format is in vivo. The settings on record: in vivo.
Source text: as §1, §2, §3

A further data set in a line: Acute toxicity, rat. The format is in vivo. The settings on record: in vivo.
Source text: as §1, §2, §3

`CCC(C)C(=O)OC1CCC=C2C=CC(C)C(CCC(CC(O)CC(=O)OC)OP(=O)(O)O)C21` (centres unmarked) [CB3A methyl ester-2K salt, Dipotassium salt of CB3A methyl ester]: the “Total Serum cholesterol lowering rate” value in the data set with serum cholesterol (1.5 mg/kg/day) turned out to be 19.5%. The “Total Serum cholesterol lowering rate” value in the data set on serum cholesterol (6 mg/kg/day) stood at 33.8%. In data set [1], this compound gave a share remaining at 840 h of 84%. In addition, in data set [2], the stability entry is given as “excellent” and the water solubility result was “excellent”.
On to `CCC(C)C(=O)OC1CCC=C2C=CC(C)C(CCC(CC(O)CC(=O)OC)OP(=O)(O)O)C21` (centres unmarked) [CB3A methyl ester-Ca salt, Calcium salt of CB3A methyl ester], for which the “Total Serum cholesterol lowering rate” value with serum cholesterol (1.5 mg/kg/day) came to 23.0%. For the same compound, the “Total Serum cholesterol lowering rate” value with serum cholesterol (6 mg/kg/day) was 40.6%. In data set [2], the hygroscopic property entry is “no hygroscopic property” and the stability entry was “particularly excellent”.
The matching figures for `CCC(C)C(=O)OC1CCC=C2C=CC(C)C(CCC(CC(O)CC(=O)O)OP(=O)(O)O)C21` (centres unmarked) [CB3A-1.5Ba salt, Sesquibarium salt of CB3A]: 21.3%, 36.6%, “no hygroscopic property” and “particularly excellent”.
`CCC(C)C(=O)OC1CCC=C2C=CC(C)C(CCC(CC(O)CC(=O)O)OP(=O)(O)O)C21` (centres unmarked) [CB3A-1.5Ca salt, Sesquicalcium salt of CB3A]: the “Total Serum cholesterol lowering rate” value is listed as 23.2% in the data set on serum cholesterol (1.5 mg/kg/day) and 40.2% in the data set with serum cholesterol (6 mg/kg/day). The LD50 in the data set on mouse (intraperitoneal injection) was more than 500 mg/kg; in the data set with mouse (per os (oral administration)) it was more than 2000 mg/kg; in the data set on rat (intraperitoneal injection) it was more than 500 mg/kg; with rat (per os (oral administration)) it was more than 2000 mg/kg. In data set [1], the Remaining rate came out at 97%. For the same compound, the hygroscopic property result in data set [2] is reported as “no hygroscopic property”. For the same compound, the stability entry in data set [2] is recorded as “particularly excellent”.
`CCC(C)C(=O)OC1CCC=C2C=CC(C)C(CCC(CC(O)CC(=O)O)OP(=O)(O)O)C21` (centres unmarked) [CB3A-1.5Mg salt]: the “Total Serum cholesterol lowering rate” value with serum cholesterol (1.5 mg/kg/day) was found to be 21.1%; with serum cholesterol (6 mg/kg/day) it was 36.3%.
As to `CCC(C)C(=O)OC1CCC=C2C=CC(C)C(CCC(CC(O)CC(=O)O)OP(=O)(O)O)C21` (centres unmarked) [CB3A-1K salt, Monopotassium salt of CB3A], the “Total Serum cholesterol lowering rate” value in the data set on serum cholesterol (1.5 mg/kg/day) was 19.6%. Also, in the data set on serum cholesterol (6 mg/kg/day), the “Total Serum cholesterol lowering rate” value is 33.7%. Moreover, in data set [2], the stability entry is “excellent” and the water solubility result was “excellent”.
For the compound `CCC(C)C(=O)OC1CCC=C2C=CC(C)C(CCC(CC(O)CC(=O)O)OP(=O)(O)O)C21` (centres unmarked) [CB3A-1Na salt], in data set [1], the Remaining rate was 74%.
Regarding `CCC(C)C(=O)OC1CCC=C2C=CC(C)C(CCC(CC(O)CC(=O)O)OP(=O)(O)O)C21` (centres unmarked) [CB3A-2K salt, Dipotassium salt of CB3A], the “Total Serum cholesterol lowering rate” value in the data set with serum cholesterol (1.5 mg/kg/day) amounted to 19.1%. In addition, the “Total Serum cholesterol lowering rate” value in the data set on serum cholesterol (6 mg/kg/day) came to 34.2%. Also, in data set [2], the stability result was “excellent” and the water solubility entry was “excellent”.
In data set [1], `CCC(C)C(=O)OC1CCC=C2C=CC(C)C(CCC(CC(O)CC(=O)O)OP(=O)(O)O)C21` (centres unmarked) [CB3A-2Na salt] had a Remaining rate of 78%.
In the case of `CCC(C)C(=O)OC1CCC=C2C=CC(C)C(CCC(CC(O)CC(=O)O)OP(=O)(O)O)C21` (centres unmarked) [CB3A-3K salt, Tripotassium salt of CB3A], the “Total Serum cholesterol lowering rate” value in the data set with serum cholesterol (1.5 mg/kg/day) is recorded as 19.4%; in the data set on serum cholesterol (6 mg/kg/day) it was 33.9%. For the same compound, the LD50 is more than 500 mg/kg in “Acute toxicity, mouse” (ip, intraperitoneal injection); more than 2000 mg/kg in the data set “Acute toxicity, mouse” (per os (oral administration)); more than 500 mg/kg in “Acute toxicity, rat” (ip, intraperitoneal injection); more than 2000 mg/kg in the data set “Acute toxicity, rat” (per os (oral administration)). Also, the stability entry in data set [2] is “excellent”. Moreover, the water solubility result in data set [2] is “excellent”.
Consider `CCC(C)C(=O)OC1CCC=C2C=CC(C)C(CCC(CC(O)CC(=O)O)OP(=O)(O)O)C21` (centres unmarked) [CB3A-3Na salt, Trisodium salt of CB3A], for which the “Total Serum cholesterol lowering rate” value in the data set with serum cholesterol (1.5 mg/kg/day) is given as 18.5%; in the data set with serum cholesterol (6 mg/kg/day) it was 34.3%. The median lethal dose (LD50) was more than 500 mg/kg in the data set on mouse (intraperitoneal injection), more than 2000 mg/kg with mouse (per os (oral administration)), more than 500 mg/kg in the data set on rat (intraperitoneal injection) and more than 2000 mg/kg with rat (per os (oral administration)). In data set [1], this compound came in with a Remaining rate of 82%. In addition, in data set [2], the stability result was “excellent”. Moreover, in data set [2], the water solubility result is “excellent”.
For the compound `CCC(C)C(=O)OC1CCC=C2C=CC(C)C(CCC(CC(O)CC(=O)O)OP(=O)(O)O)C21` (centres unmarked) [CB3A-Al salt, Aluminum salt of CB3A], the “Total Serum cholesterol lowering rate” value is 24.2% in the data set on serum cholesterol (1.5 mg/kg/day) and 41.6% in the data set with serum cholesterol (6 mg/kg/day). Also, the LD50 in the data set on mouse (intraperitoneal injection) is recorded as more than 500 mg/kg; in the data set with mouse (per os (oral administration)) it was more than 2000 mg/kg; with rat (intraperitoneal injection), more than 500 mg/kg; with rat (per os (oral administration)), more than 2000 mg/kg. The compound further displayed a Remaining rate in data set [1] of 98%. The hygroscopic property entry in data set [2] is on record as “no hydroscopic property”. The stability result in data set [2] is listed as “particularly excellent”.
`CCC(C)C(=O)OC1CC(C)C=C2C=CC(C)C(CCC(CC(O)CC(=O)OC)OP(=O)(O)O)C21` (centres unmarked) [CK3A methyl ester-2K salt, Dipotassium salt of CK3A methyl ester]: the “Total Serum cholesterol lowering rate” value in the data set on serum cholesterol (1.5 mg/kg/day) came out at 18.7%. Besides, the “Total Serum cholesterol lowering rate” value in the data set on serum cholesterol (6 mg/kg/day) is 34.7%. The compound further returned an amount remaining at 840 h in data set [1] of 83%. Moreover, in data set [2], the stability entry is “excellent” and the water solubility entry is on record as “excellent”.
For `CCC(C)C(=O)OC1CC(C)C=C2C=CC(C)C(CCC(CC(O)CC(=O)OC)OP(=O)(O)O)C21` (centres unmarked) [CK3A methyl ester-Ca salt, Calcium salt of CK3A methyl ester], the “Total Serum cholesterol lowering rate” value in the data set on serum cholesterol (1.5 mg/kg/day) amounted to 24.9%. Also, in the data set on serum cholesterol (6 mg/kg/day), the “Total Serum cholesterol lowering rate” value is 39.2%. Moreover, in data set [2], the hygroscopic property result was “no hygroscopic property” and the stability entry is “particularly excellent”.
The like results for `CCC(C)C(=O)OC1CC(C)C=C2C=CC(C)C(CCC(CC(O)CC(=O)O)OP(=O)(O)O)C21` (centres unmarked) [CK3A-1.5Ba salt, Sesquibarium salt of CK3A] were, in that order, 21.1%, 36.6%, “no hygroscopic property” and “particularly excellent”.
In the case of `CCC(C)C(=O)OC1CC(C)C=C2C=CC(C)C(CCC(CC(O)CC(=O)O)OP(=O)(O)O)C21` (centres unmarked) [CK3A-1.5Ca salt, Sesquicalcium salt of CK3A], the “Total Serum cholesterol lowering rate” value in the data set on serum cholesterol (1.5 mg/kg/day) is listed as 24.5%; in the data set on serum cholesterol (6 mg/kg/day), 39.9%. The LD50 with mouse (intraperitoneal injection) was more than 500 mg/kg; with mouse (per os (oral administration)) it was more than 2000 mg/kg; in the data set with rat (intraperitoneal injection), more than 500 mg/kg; with rat (per os (oral administration)), more than 2000 mg/kg. This compound registered a Remaining rate in data set [1] of 96%. Further, in data set [2], the hygroscopic property entry was “no hygroscopic property”. Besides, the stability result in data set [2] is on record as “particularly excellent”.
For `CCC(C)C(=O)OC1CC(C)C=C2C=CC(C)C(CCC(CC(O)CC(=O)O)OP(=O)(O)O)C21` (centres unmarked) [CK3A-1.5Mg salt], the “Total Serum cholesterol lowering rate” value with serum cholesterol (1.5 mg/kg/day) was 22.1%; with serum cholesterol (6 mg/kg/day), 36.3%.
As for `CCC(C)C(=O)OC1CC(C)C=C2C=CC(C)C(CCC(CC(O)CC(=O)O)OP(=O)(O)O)C21` (centres unmarked) [CK3A-3K salt, Tripotassium salt of CK3A], the “Total Serum cholesterol lowering rate” value in the data set with serum cholesterol (1.5 mg/kg/day) was 18.9%; with serum cholesterol (6 mg/kg/day), 34.7%. For the same compound, the 50% lethal dose (LD50) in “Acute toxicity, mouse” (ip, intraperitoneal injection) was more than 500 mg/kg; in the data set “Acute toxicity, mouse” (per os (oral administration)), more than 2000 mg/kg; in “Acute toxicity, rat” (ip, intraperitoneal injection), more than 500 mg/kg; in “Acute toxicity, rat” (per os (oral administration)) it was more than 2000 mg/kg. This compound also displayed a Remaining rate in data set [1] of 85%. For the same compound, in data set [2], the stability result is reported as “excellent”. Also, the water solubility result in data set [2] is “excellent”.
As for `CCC(C)C(=O)OC1CC(C)C=C2C=CC(C)C(CCC(CC(O)CC(=O)O)OP(=O)(O)O)C21` (centres unmarked) [CK3A-3Na salt, Trisodium salt of CK3A], the “Total Serum cholesterol lowering rate” value with serum cholesterol (1.5 mg/kg/day) came to 17.1%; with serum cholesterol (6 mg/kg/day) it was 30.0%. For the same compound, the LD50 is reported as more than 500 mg/kg in the data set on mouse (intraperitoneal injection), more than 2000 mg/kg in the data set on mouse (per os (oral administration)), more than 500 mg/kg in the data set on rat (intraperitoneal injection) and more than 2000 mg/kg in the data set on rat (per os (oral administration)). Also, the stability result in data set [2] is “excellent”. Also, in data set [2], the water solubility entry was “excellent”.
Regarding `CCC(C)C(=O)OC1CC(C)C=C2C=CC(C)C(CCC(CC(O)CC(=O)O)OP(=O)(O)O)C21` (centres unmarked) [CK3A-Al salt, Aluminum salt of CK3A], the entries for the “Total Serum cholesterol lowering rate” value in the data set on serum cholesterol (1.5 mg/kg/day) and with serum cholesterol (6 mg/kg/day) were 23.4% and 41.6%, respectively. Further, the median lethal dose (LD50) in the data set on mouse (intraperitoneal injection) is on record as more than 500 mg/kg; in the data set with mouse (per os (oral administration)), more than 2000 mg/kg; in the data set on rat (intraperitoneal injection), more than 500 mg/kg; with rat (per os (oral administration)), more than 2000 mg/kg. In addition, the Remaining rate in data set [1] was 98%. Further, the hygroscopic property entry in data set [2] is given as “no hygroscopic property”. Moreover, the stability entry in data set [2] is listed as “particularly excellent”.
